This passage reports logP results from the SangsterLogP compilation.

In general, logP refers to a log measure of how a compound divides between an organic and an aqueous phase. Low readings indicate lower lipophilicity, high ones higher lipophilicity.

One series in a line: method code SF-AS, from DOI: 10.1248/cpb.33.2403, PMID: 4064199.
The compound `CN(C)C(=O)OCCCc1cccnc1` gave a logP of 1.44.

Regarding `NC(=O)OCCCc1ccccc1`, the logP stood at 1.96.

`CN(C)C(=O)OCCCc1ccccc1` came in with a logP of 2.93.

Turning to `CN(C)C(=O)OCCc1ccccc1`, the logP is 2.4.

`CCC(CC)COC(N)=O` gave a lipophilicity (logP) of 1.98.

On to `CCN(CC)C(=O)OCCc1ccccc1`, for which the logP turned out to be 3.2.

As to `NC(=O)OCCc1c[nH]c2ccccc12`, the logP came to 1.69.

`CCC(CC)COC(=O)N(C)C`: the logP was 2.87.

`NC(=O)OCc1ccc(Cl)cc1` gave a logP of 1.97.

In turn, `CCN(CC)C(=O)OCCc1c[nH]c2ccccc12` came in with a logP of 3.3.

The compound `CN(C)C(=O)OCCc1c[nH]c2ccccc12` registered a logP of 2.54.

In the case of `CCN(CC)C(=O)OCC(C)C`, the logP was 2.82.

`NC(=O)OCCCc1cccnc1` registered a logP of 0.46.

As for `CC(C)OC(=O)N(C)C`, the logP was 1.38.

On to `CCN(CC)C(=O)OCc1ccccc1`, for which the logP was found to be 2.93.

`CNC(=O)OCc1ccccc1`: the logP was determined as 1.68.

Consider `NC(=O)OCCc1ccccc1`, for which the logP was 1.5.

The nature of the next series: method code SF-GLC, from DOI: 10.1248/cpb.33.2403, PMID: 4064199.
With `CC(C)COC(=O)N(C)C`, the logP stood at 2.

`CC(C)COC(N)=O` returned a lipophilicity (logP) of 0.98.

Another series in a line: method code SF-HPLC, from DOI: 10.1248/cpb.33.2403, PMID: 4064199.
`CCC(CC)COC(=O)N(CC)CC` gave a logP of 3.6.

`CC(Cc1ccccc1)OC(=O)N(C)C` (stereo unspecified) showed a logP of 2.6.
